# Measured values as given in patent US8852895B2, “Macrocyclic derivative and assemblies formed therefrom” (University College Dublin, National University of Ireland, priority 2008, dated 2014).
# “And” between values parts separate entries of the source, which are not always exact repeats. Equal entries are not always repeated. Where two headings read alike, the source gives them in different places.
# What was measured:
# Cos-7 cells = conditions: cyclodextrin:DNA mass ratios of 10, 15 and 20, 1 μg DNA, FIG. 3
# Protocol: The plasmid DNA used for the transfection studies was the pGL3luc plasmid. This plasmid contains the gene that encodes for the firefly luciferase enzyme which allows measurement of gene expression levels in cells.
# The cyclodextrin was dissolved in chloroform to a concentration of 1 mg/mL. A slow stream of nitrogen was passed over the solution to remove solvent. The cyclodextrin was then reconstituted with a plasmid DNA solution to give a final cyclodextrin concentration of 1 mg/mL. The DNA concentration used depended on the ratio of cyclodextrin:DNA being studied. This cyclodextrin:DNA solution was then sonicated for 1 hour to facilitate size reduction.
# Cos-7 cells were seeded at a density of 30,000 cells per well and grown in 24 well plates in media for 20-24 hours. Prior to transfection studies, the cells were rinsed with serum-free media and then incubated in serum-free media for 1 hour. […] DNA complexes were prepared in a final volume of 100 μL so that 1 μg of DNA complexed with the vectors at the desired mass ratio. This was then added to 400 μL of serum-free media and cells which was left at 37° C. for 4 hours. […] Luciferase expression was then determined using a luciferase assay kit (Promega USA) and results were expressed as Relative Light Units (RLU) of luciferase per pg of protein (Bradford assay). […]
# [1] = DLS, 0.1 mg/mL cyclodextrin in water
# Protocol: A 50 μL aliquot of the stock solution (0.5 mg of cyclodextrin) was transferred to a glass vial. The solvent was evaporated slowly in order to form a thin film of cyclodextrin on the surface of the glass. Millipore water (5 mL) was then used to hydrate the film giving a cyclodextrin solution with a concentration of 0.1 mg/mL. The vial was capped and placed in an oven for 90 minutes at 60° C. The cyclodextrin solutions were then filtered through a 0.45 μm Gelman Acrodisk syringe filter into a fluorimeter cuvette to remove any particles and macro aggregates. DLS investigations of these solutions were carried out using a Malvern Autosizer 4700 equipped with an Innova 70 laser (488 nm) and a photomultiplier at an angle of 90°.
structure (smiles),measurement,setting,value
CCCCCCCCOC(=O)CCSCCCO[C@H]1[C@H]2O[C@H]3[C@H](O)[C@@H](OCCCSCCC(=O)OCCCCCCCC)[C@@H](O[C@H]4[C@H](O)[C@@H](OCCCSCCC(=O)OCCCCCCCC)[C@@H](O[C@H]5[C@H](O)[C@@H](OCCCSCCC(=O)OCCCCCCCC)[C@@H](O[C@H]6[C@H](O)[C@@H](OCCCSCCC(=O)OCCCCCCCC)[C@@H](O[C@H]7[C@H](O)[C@@H](OCCCSCCC(=O)OCCCCCCCC)[C@@H](O[C@H]8[C@H](O)[C@@H](OCCCSCCC(=O)OCCCCCCCC)[C@@H](O[C@@H]([C@@H]1O)[C@@H](CSCCN)O2)O[C@@H]8CSCCN)O[C@@H]7CSCCN)O[C@@H]6CSCCN)O[C@@H]5CSCCN)O[C@@H]4CSCCN)O[C@@H]3CSCCN.O=C(O)C(F)(F)F [heptakis[6-(2′-aminoethylthio)-2-O-octyloxycarbonylethylsulfanylpropyl]-β-cyclodextrin trifluoroacetic acid salt],transfection (luciferase expression) compared with naked DNA and DOTAP,Cos-7 cells,greater than DNA on its own and greater than DOTAP
same,Zaverage (nm),"[1]; Day 1, filtered 0.45 μm, angle 90°, trifluoroacetic acid salt",76 nm and 85 nm
same,Polydispersity,[1]; Day 7,0.251
same,Zaverage (nm),[1]; Day 7,82 nm
